From article PMC9977398, “Next-generation membrane-active glycopeptide antibiotics that also inhibit bacterial cell division” (Chemical Science, 2023) come the findings set out here.

In one assay the test system is MRSA. Description: Cytoplasmic membrane depolarization assay, DiSC3(5). To be noted: for time to membrane depolarisation post-treatment: exponentially growing MRSA, 10 μM; for time to dissipation of membrane potential post-treatment: stationary phase cells of MRSA, 20 μM. The format is cell-based, S. aureus. From the text: The membrane disruption properties of both VanQbiph (4) and VanQAmC10 (8) were studied to correlate the extent of membrane perturbation and bactericidal activity against both exponentially growing and non-growing bacterial cells. Their ability to depolarize the membrane was monitored using the fluorescent probe DiSC3(5) (3,3′-dipropylthiadicarbocyanine iodide). DiSC3(5) is sensitive to the membrane potential and as it accumulates in the membrane, the fluorescence intensity decreases due to self-quenching. Upon dissipation of membrane potential, an increase in fluorescence is observed due to DiSC3(5) being dispersed in the solution. Against B. subtilis and MRSA, both the compounds VanQbiph (4) and VanQAmC10 (8) depolarised the membrane within 2 minutes post-treatment at 10 μM (Fig. 2A and B). The depolarization occurred in a concentration-dependent manner (Fig. S2A ^†). […] Against stationary phase cells of MRSA also, rapid dissipation of membrane potential was observed within 2 minutes post-treatment with both VanQbiph (4) and VanQAmC10 (8) (Fig. 2C). […]
For assessing depolarisation against stationary phase cells of MRSA ATCC 33591, cells were grown to the stationary phase for 16 h. The culture was then diluted to an OD600 of 0.2 and the depolarisation assays was performed as described. The experiments were performed three times independently in duplicates and the graph is representative of the results from all experiments.
Cytoplasmic membrane depolarization assay5
Mid log phase MRSA were harvested (3500 rpm, 5 min), washed in 5 mM glucose and 5 mM HEPES buffer (pH 7.2) in 1:1 ratio and resuspended in 5 mM HEPES buffer, 5 mM glucose and 100 mM KCl solution in 1:1:1 ratio. Then 2 μM of 3, 3′-Dipropylthiadicarbocyanine iodide (DiSC3(5)) was added to bacterial suspension and pre-incubated for 45 min. The fluorescence was monitored at excitation wavelength of 622 nm and emission wavelength of 670 nm. Then 20 μL of test compound and vancomycin were added to black well plates containing bacterial suspension and DiSC3(5) after 2-4 min of fluorescence measurement. As a measure of membrane depolarization fluorescence was monitor for another 35 min. For assessing membrane […] against stationary phase cells of MRSA ATCC 33591, cells were grown to the stationary phase for 16 h. The culture was then diluted to an OD600 of 0.2 and the depolarisation assays was performed as described. The images are representative of results from three independent experiments done in triplicates […]
Glass cover slips 24 h post -treatment with the test compounds at the mentioned con centrations, […]

The next assay has as its system AB R674 (A. baumannii). Briefly: MIC determination, micro-dilution broth. The format is cell-based. As for the experimental part:
The increase in the carbon content of substituted moieties from six (1) to seven (2 and 3) to ten (5) to twelve (4), increased activity. […]
Test compound was assayed in a micro -dilution broth format as per the CLSI guideline. The bacterial freeze dried stock samples were stored at -80 °C. About 5 μL of these stocks were added to 3 mL of the respective broth and the culture was grown for 6 h at 37°C with prior to the experiments. This 6 h grown culture was diluted to give effective cell concentration of 10 5 CFU/mL which was then used for determining MIC. Compounds were serially diluted 2 -fold, in sterile millipore water and 50 μL of these serial dilutions were added to the wells of 96 well plate followed by the addition of about 150 μL of bacterial solution. The plates were then incubated for 18-24 h at 37 °C. The O.D. value at 600 nm was recorded using TECAN (Infinite series, M200 pro) Plate Reade r. Each concentration had triplicate values and the whole experiment was done at least twice and the MIC value was determined by taking the average of triplicate O. D. values for each concentration and plotting it against concentration. The data was then subjected to sigmoidal fitting. From the curve the MIC value was determined, as the point where the O. D. was similar to that of control having no bacteria.
A general note: Dilution methods test growth across graded concentrations, often in twofold steps.

For the next assay, the system named is MRSA ATCC33591. Description: Neutropenic murine thigh infection model. The format is in vivo, Balb/c mice. The following applies: for bacterial load in thigh: 12 mg kg^−1 i.p. at 1 h and 13 h post-infection, 24 h, untreated 8 log CFU g^−1. On the procedure: The in vitro activity, low toxicity, and stability in plasma and liver homogenate, supported the potential of VanQAmC10 as a candidate for the treatment of bacterial infections. The efficacy of VanQAmC10 (8) against MRSA was tested in a neutropenic mouse thigh infection model. Infection was established by injecting them with 5 × 10^5 CFU of MRSA in the thigh. 1 h and 13 h post-infection, mice were treated with 12 mg kg^−1 of vancomycin and VanQAmC10 administered intraperitoneally (Fig. 6B). The mice were sacrificed 24 h post-infection. […] In the untreated group, the bacterial load increased to 8 log CFU g^−1. […] However, treatment with VanQAmC10 reduced the bacterial load to 3.3 log CFU g^−1, which is a 1.5 log CFU g^−1 lower bacterial load than observed against vancomycin. […]
bacterial concentration was adjusted to ~ […] based on OD600. The process was repeated for 27 passages. The fold of MIC increased for test compounds were plotted against […]
Activity in blood plasma and liver homogenate
To examine the susceptibility of VanQAmC10 to serum proteases, the antibacterial activities was tested in the presence of 50% of plasma and liver homogenate. Briefly, 250 μL of VanQAmC10 was added into 250 μL of fresh human plasma and incubated at 37 °C. An aliquot of the samples 3 h and 24h post-incubation was diluted in 0.9% saline and the antibacterial activity (MIC) were determined against MRSA and VRE by following the same protocol as described above for the antibacterial assay.
The toxicity of the lead compound VanQAmC10 was tested in mice through various modes of administration and reported as the LD50 (LD = lethal dose). The LD50 is the dosage that kills 50% of the test population of mice. […]
The doses for administration, were given modified OECD guidelines. LD50 was determined using Spearman-Karber method. […]
Groups of four 6 to 8 week-old Balb/c specific-pathogen-free female mice were used (weight ~22 g) for the experiment. […] The bacterial titer was expressed as Log CFU/g of thigh weight and plotted in GraphPad Prism software. […]

The mark [1] stands for this setting: Acinetobacter baumannii, read-out: Minimum inhibitory concentration, AB R674.

Structures are written as SMILES. ≈ marks a conversion by molar mass, not a printed value. Where two headings read alike, the source gives them in different places.

As to `CNC(CC(C)C)C(=O)NC1C(=O)NC(CC(N)=O)C(=O)NC2C(=O)NC3C(=O)NC(C(=O)NC(C(=O)NCCC[N+](C)(C)Cc4ccc(-c5ccccc5)cc4)c4cc(O)cc(O)c4-c4cc3ccc4O)C(O)c3ccc(c(Cl)c3)Oc3cc2cc(c3OC2OC(CO)C(O)C(O)C2OC2CC(C)(N)C(O)C(C)O2)Oc2ccc(cc2Cl)C1O` (centres unmarked) [VanQbiph (4)], in the assay with MRSA, the “time to membrane depolarisation post-treatment” value was not above 2 min and the “time to dissipation of membrane potential post-treatment” value is not above 2 min. The MIC with AB R674 (A. baumannii) (Acinetobacter baumannii; read-out: Minimum inhibitory concentration, AB R674) was 24.5 µM.
On to `CN[C@H](CC(C)C)C(=O)N[C@H]1C(=O)N[C@@H](CC(N)=O)C(=O)N[C@H]2C(=O)N[C@H]3C(=O)N[C@H](C(=O)N[C@H](C(=O)O)c4cc(O)cc(O)c4-c4cc3ccc4O)[C@H](O)c3ccc(c(Cl)c3)Oc3cc2cc(c3O[C@@H]2O[C@H](CO)[C@@H](O)[C@H](O)[C@H]2O[C@H]2C[C@](C)(N)[C@H](O)[C@H](C)O2)Oc2ccc(cc2Cl)[C@H]1O` [Vancomycin, reference compound], for which the “effect on membrane potential” value with MRSA is “did not affect the membrane potential”. Moreover, in the assay with MRSA ATCC33591, the “bacterial load in thigh” value worked out at 4.8 log CFU g^−1. For the same molecule, in the assay with AB R674 (A. baumannii) (setting [1]), the MIC came out at 100 µM (≈ 145 µg/mL).
`CCCCCCCCCCNC(=O)C[N+](C)(C)CCCNC(=O)C1NC(=O)C2NC(=O)C(NC(=O)C3NC(=O)C(CC(N)=O)NC(=O)C(NC(=O)C(CC(C)C)NC)C(O)c4ccc(c(Cl)c4)Oc4cc3cc(c4OC3OC(CO)C(O)C(O)C3OC3CC(C)(N)C(O)C(C)O3)Oc3ccc(cc3Cl)C2O)c2ccc(O)c(c2)-c2c(O)cc(O)cc21` (centres unmarked) [VanQAmC10 (8)]: in the assay with MRSA, the “time to membrane depolarisation post-treatment” value is not above 2 min and the “time to dissipation of membrane potential post-treatment” value is not above 2 min. Besides, the “bacterial load in thigh” value in the assay on MRSA ATCC33591 was 3.3 log CFU g^−1. Besides, in the assay with MRSA ATCC33591 (12 mg kg^−1 i.p. twice), the “lower bacterial load than observed against vancomycin” value was 1.5 log CFU g^−1. For the same molecule, the MIC in the assay with AB R674 (A. baumannii) (setting [1]) turned out to be 10 µM.
